From PMC10743905, “Design, Synthesis, and In Vitro and In Vivo Bioactivity Studies of Hydrazide–Hydrazones of 2,4-Dihydroxybenzoic Acid” (International Journal of Molecular Sciences, 2023)
Converted amounts (≈) assume the structure as drawn.

What was measured:
[1] = tested on: Candida parapsilosis ATCC 22019; assay: Broth microdilution MIC/MFC; format: cell-based; conditions: for MFC / MIC: Lodderomyces parapsilosis; for MFC: ATCC22019, read-out: MFC; for MIC: ATCC22019, read-out: MIC
Summary of the method: (§1)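 Broth microdilution per EUCAST and CLSI guidelines: 0.5 McFarland inocula in 0.85% NaCl added to two-fold compound dilutions (1000–0.488 µg/ml final). Media were Mueller-Hinton broth for bacteria and RPMI 1640 with MOPS for yeasts.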

[2] = tested on: Candida albicans ATCC 2091; assay: Broth microdilution MIC/MFC; format: cell-based; conditions: for MFC: ATCC2091, read-out: MFC; for MIC: ATCC2091, read-out: MIC
Summary of the method: as §1

[3] = tested on: Candida krusei ATCC 14243; assay: Broth microdilution MIC/MFC; format: cell-based; conditions: for MFC / MIC: Pichia kudriavzevii; for MFC: ATCC14243, read-out: MFC; for MIC: ATCC14243, read-out: MIC
Summary of the method: as §1

H1563 = assay: MTT antiproliferative assay; format: cell-based, human; conditions: for IC50: MTT, 24 h incubation, lung adenocarcinoma; for Selectivity Index: ratio IC50 HEK-293 / IC50 H1563
Protocol: The in vitro studies were performed on the reference line HEK-293 (human embryonic kidney cells, ATCC® CRL-1573™) and […] human cancer cell lines: 769-P (adenocarcinoma, renal cells, ATCC® CRL-1933™) and HepG2 (carcinoma, hepatocellular, ATCC® HB-8065™), H1563 (adenocarcinoma, non-smallcell lung cancer, ATCC® CRL-5875™), LN-229 (glioblastoma, ATCC® CRL-2611™). Cells from the 769-P and H1563 cell lines were cultured in RPMI-1640 growth medium (PAN Biotech GmbH, Aidenbach, Bayern, Germany), cells from the HEK-293 and HepG2 cell lines were cultured in EMEM growth medium (PAN Biotech GmbH, Aidenbach, Bayern, Germany), and cells from the LN-229 cell line were cultured in DMEM growth medium (PAN Biotech GmbH, Aidenbach, Bayern, Germany) in sterile 75 cm^2 culture phalcones. Fetal bovine serum (PAN Biotech GmbH, Aidenbach, Bayern, Germany) at 10% of growth medium and antibiotics (Sigma-Aldrich, Poland) (2.5 µg/mL amphotericin B, 100 µg/mL penicillin, and 100 µg/mL streptomycin) were added to all media. Cells were cultured at 37 °C in an incubator with 5% CO2 flow until a cell layer was formed. Following this, the medium was removed, and the cells were washed with 0.25% trypsin solution with 2.21 mM EDTA (Corning Incorporated, Corning, NY, USA) in order to completely remove fetal bovine serum containing trypsin inhibitor. Finally, 6 mL of complete growth medium was added, and the cells were aspirated by gentle pipetting.
The determination of inhibitory concentration (IC50) in the HEK-293, 769-P, HepG2, H1563, and LN-229 cell cultures for selected hydrazide–hydrazones was performed using the MTT assay procedure. This test was performed according to the MTT Assay ECVAM n°17 protocol manual prepared by the European Centre for the Validation of Alternative Methods (ECVAM), an entity that aims to reduce in vivo testing in favor of in vitro and in silico methods. To 96-well sterile plates, 100 μL of cell suspensions, prepared in the appropriate medium at a concentration of 3 × 10^5 cells/mL, was added using a multichannel pipette. To achieve cell adhesion to the bottom of the plates, cells were incubated for 24 h at 37 °C with 5% CO2 flow and 90% humidity. To determine the growth-inhibitory concentration, the solutions of the tested substances (19–24) were prepared at concentrations ranging from 1 µM to 500 µM, added individually to the wells following the rule of 8 wells per concentration, and the plates were again incubated for 24 h at 37 °C and with 5% CO2 addition. We also prepared a background control (200 μL of the respective growth medium) and negative control (100 μL of cells in the appropriate growth medium + 100 μL of the growth medium), which provided information on the amount of formazan formed in the untreated cells. After a 24 h incubation period, the solutions were extracted from the cells; 190 μL of growth medium and 10 μL of 5 mg/mL MTT solution (Invitrogen, Waltham, MA, USA) were added each and incubated for 4 h. After this time, all medium was removed, 100 μL of DMSO (Corning Incorporated, Corning, NY, USA) was added to each well, and absorbance measurements were performed at 550 nm using a Power Weave xs spectrophotometric microplate reader (BioTek, Winooski, VT, USA). The decrease in absorbance is equivalent to the decrease in MTT formazan production, which is due to the decrease in mitochondrial dehydrogenase activity and indicates a cytotoxic effect from the tested substances. Cell viability is expressed as a percentage as the ratio of the absorbance of test substance-treated cells to the untreated cells. The experiments were repeated three times.
The significance level was taken as p < 0.05.

SMILES	MFC/MIC [1]	MFC [1]	MIC [1]	MFC/MIC [2]	MFC [2]	MIC [2]	MFC/MIC [3]	MFC [3]	MIC [3]	IC50 (H1563; Homo sapiens, NCI-H1563, 24 h)	Selectivity Index (H1563)	IC50 (H1563)
O=C(N/N=C/c1ccc([N+](=O)[O-])cc1)c1ccc(O)cc1O [Compound 21, 2,4-dihydroxy-N-[(4-nitrophenyl)methylidene]benzohydrazide]	> 2	> 1000 µg/mL	500 µg/mL (≈ 1.66 mM)	> 1	> 1000 µg/mL	1000 µg/mL (≈ 3.32 mM)	> 2	> 1000 µg/mL	500 µg/mL (≈ 1.66 mM)	> 500 µM	–	–
O=C(N/N=C/c1ccccc1F)c1ccc(O)cc1O [Compound 24, N-[(2-fluorophenyl)methylidene]-2,4-dihydroxybenzohydrazide]	> 1	> 1000 µg/mL	1000 µg/mL (≈ 3.65 mM)	> 1	> 1000 µg/mL	1000 µg/mL (≈ 3.65 mM)	> 1	> 1000 µg/mL	1000 µg/mL (≈ 3.65 mM)	200 µM	1.94	–
CCCc1ccc(/C=N/NC(=O)c2ccc(O)cc2O)cc1 [Compound 13, 2,4-dihydroxy-N-[(4-propylphenyl)methylidene]benzohydrazide]	> 1	> 1000 µg/mL	1000 µg/mL (≈ 3.35 mM)	–	–	> 1000 µg/mL	–	–	> 1000 µg/mL	–	–	–
O=C(N/N=C/c1ccccc1Cl)c1ccc(O)cc1O [Compound 22, N-[(2-chlorophenyl)methylidene]-2,4-dihydroxybenzohydrazide]	> 1	> 1000 µg/mL	1000 µg/mL (≈ 3.44 mM)	> 1	> 1000 µg/mL	1000 µg/mL (≈ 3.44 mM)	> 1	> 1000 µg/mL	1000 µg/mL (≈ 3.44 mM)	217 µM	1.45	–
O=C(N/N=C/c1ccccc1Br)c1ccc(O)cc1O [Compound 23, N-[(2-bromophenyl)methylidene]-2,4-dihydroxybenzohydrazide]	> 1	> 1000 µg/mL	1000 µg/mL (≈ 2.98 mM)	> 1	> 1000 µg/mL	1000 µg/mL (≈ 2.98 mM)	–	–	> 1000 µg/mL	101 µM	9.08 × 10^2	–
O=C(N/N=C/c1cccc([N+](=O)[O-])c1)c1ccc(O)cc1O [Compound 20, 2,4-dihydroxy-N-[(3-nitrophenyl)methylidene]benzohydrazide]	> 1	> 1000 µg/mL	1000 µg/mL (≈ 3.32 mM)	–	–	> 1000 µg/mL	–	–	> 1000 µg/mL	70.9 µM	1.89 × 10^2	–
O=C(N/N=C/c1cc(I)cc(I)c1O)c1ccc(O)cc1O [Compound 18, 2,4-dihydroxy-N-[(2-hydroxy-3,5-diiodophenyl)methylidene]benzohydrazide]	> 2	> 1000 µg/mL	500 µg/mL (≈ 0.954 mM)	> 2	> 1000 µg/mL	500 µg/mL (≈ 0.954 mM)	> 1	> 1000 µg/mL	1000 µg/mL (≈ 1.91 mM)	–	–	–
O=C(N/N=C/c1ccccc1[N+](=O)[O-])c1ccc(O)cc1O [Compound 19, 2,4-dihydroxy-N-[(2-nitrophenyl)methylidene]benzohydrazide]	> 4	> 1000 µg/mL	250 µg/mL (≈ 0.83 mM)	> 2	> 1000 µg/mL	500 µg/mL (≈ 1.66 mM)	> 2	> 1000 µg/mL	500 µg/mL (≈ 1.66 mM)	65.7 µM	2.27 × 10^3	65.6 µM
